Ends that are not written are not given here.

Here are results for 26 substances from patent publication US20190315823A1, “SMALL CATIONIC ANTI-BIOFILM AND IDR PEPTIDES” (priority 2013, published 2019).

Experiment [1] relates to human peripheral blood mononuclear cells (MCP-1). The experiment can be described thus: SPOT-synthesized derivative screen: production of chemokine MCP-1. It counts as cell-based. As to conditions: Table 12, No LPS, human PBMC, peptide at ~18-24 μM; for MCP1: background subtracted 139 (HH2 derivatives), 170 (1018 derivatives), 242 (1002 and hybrid peptides) pg/ml. The gist of the method:
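MCP-1 was quantified by capture ELISA in cleared culture supernatants of treated human peripheral blood mononuclear cells. Cells came from heparinized volunteer blood via Ficoll gradient and were seeded at 0.75 to 1×10^6 cells/ml (37 °C, 5% CO2).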

For experiment [2], the system named is methicillin resistant Staphylococcus aureus (MRSA) biofilm. As to conditions: approximate peptide concentration […] (around 3 μg/ml); compared to untreated samples. In outline:
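Peptide was present from inoculation onward, with bacteria seeded at 1/100 from overnight cultures into BM2 biofilm medium or Luria Broth. Crystal violet staining of surface-attached cells (A595) quantified biofilm reduction at 22–46 h. K. pneumoniae was additionally screened in a real-time Bioflux flow device for some peptides.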

The subject of experiment [3] is LPS-stimulated human peripheral blood mononuclear cells (IL1-β). It counts as cell-based. As to conditions: Table 12, cells stimulated with 10 ng/ml LPS; for IL1β Production: LPS alone 1313 (HH2 derivatives), 1927 (1018 derivatives), 2455 (1002 and hybrid peptides) pg/ml.

For the substance “HH2-I2: single substituted HH2 peptide (VILRIRVAVIRA-NH2)”, in experiment [1], the “Fold increase in MCP1 cf. untreated cells” value (shortened to “Fold increase”) stood at 11 and the “MCP1” value is 1748 pg/mL. For the same substance, in experiment [2], the “% Biofilm inhibition” value amounted to 54%. In experiment [3], the “Fold change in IL1β relative to no peptide LPS stimulated cells” value was found to be 0.81 and the “IL1β Production” value worked out at 1060 pg/mL.

In the case of “HH2-I3: single substituted HH2 peptide (VQIRIRVAVIRA-NH2)”, in experiment [1], the “Fold increase” value is given as 6.8 and the “MCP1” value is 982 pg/mL. The “% Biofilm inhibition” value in experiment [2] is 62%. Besides, in experiment [3], the “Fold change in IL1β relative to no peptide LPS stimulated cells” value is recorded as 1.02 and the “IL1β Production” value turned out to be 1336 pg/mL.

Consider “HH2-I4: single substituted HH2 peptide (VQLIIRVAVIRA-NH2)”, for which, in experiment [1], the “Fold increase” value was found to be 11 and the “MCP1” value was 1669 pg/mL. Besides, the “% Biofilm inhibition” value in experiment [2] turned out to be 47%. In experiment [3], the “Fold change in IL1β relative to no peptide LPS stimulated cells” value worked out at 0.58 and the “IL1β Production” value was determined as 760 pg/mL.

Take “HH2-I6: single substituted HH2 peptide (VQLRIIVAVIRA-NH2)”: in experiment [1], the “Fold increase” value is given as 8.1 and the “MCP1” value is 1206 pg/mL. In experiment [2], the “% Biofilm inhibition” value was determined as 45%. Moreover, in experiment [3], the “Fold change in IL1β relative to no peptide LPS stimulated cells” value is on record as 0.75 and the “IL1β Production” value turned out to be 984 pg/mL.

Turning to “HH2-I7: single substituted HH2 peptide (VQLRIRIAVIRA-NH2)”, in experiment [1], the “Fold increase” value is recorded as 8.8 and the “MCP1” value was found to be 1332 pg/mL. Besides, in experiment [2], the “% Biofilm inhibition” value is on record as 69%. Further, in experiment [3], the “Fold change in IL1β relative to no peptide LPS stimulated cells” value is 0.68 and the “IL1β Production” value came to 897 pg/mL.

In the case of “HH2-I8: single substituted HH2 peptide (VQLRIRVIVIRA-NH2)”, in experiment [1], the “Fold increase” value is listed as 17 and the “MCP1” value was determined as 2789 pg/mL. In addition, the “% Biofilm inhibition” value in experiment [2] was determined as 74%. Further, in experiment [3], the “Fold change in IL1β relative to no peptide LPS stimulated cells” value was found to be 0.53 and the “IL1β Production” value was determined as 701 pg/mL.

Consider “HH2-I9: single substituted HH2 peptide (VQLRIRVAIIRA-NH2)”, for which, in experiment [1], the “Fold increase” value turned out to be 50 and the “MCP1” value is 8276 pg/mL. In addition, the “% Biofilm inhibition” value in experiment [2] was 73%. Further, in experiment [3], the “Fold change in IL1β relative to no peptide LPS stimulated cells” value is on record as 0.75 and the “IL1β Production” value came out at 980 pg/mL.

As to “HH2-I11: single substituted HH2 peptide (VQLRIRVAVIIA-NH2)”, in experiment [1], the “Fold increase” value amounted to 60 and the “MCP1” value was found to be 9977 pg/mL. Further, in experiment [2], the “% Biofilm inhibition” value was determined as 55%. For the same substance, in experiment [3], the “Fold change in IL1β relative to no peptide LPS stimulated cells” value came out at 1.07 and the “IL1β Production” value was 1402 pg/mL.

With “HH2-I12: single substituted HH2 peptide (VQLRIRVAVIRI-NH2)”, in experiment [1], the “Fold increase” value is listed as 18 and the “MCP1” value is 2845 pg/mL. Moreover, in experiment [2], the “% Biofilm inhibition” value turned out to be 65%. For the same substance, in experiment [3], the “Fold change in IL1β relative to no peptide LPS stimulated cells” value was 0.51 and the “IL1β Production” value is 667 pg/mL.

For “HH2-K1: single substituted HH2 peptide (KQLRIRVAVIRA-NH2)”, in experiment [1], the “Fold increase” value was 6.7 and the “MCP1” value amounted to 968 pg/mL. Further, the “% Biofilm inhibition” value in experiment [2] was 55%. For the same substance, in experiment [3], the “Fold change in IL1β relative to no peptide LPS stimulated cells” value is reported as 1.08 and the “IL1β Production” value is 1423 pg/mL.

“HH2-K2: single substituted HH2 peptide (VKLRIRVAVIRA-NH2)”: in experiment [1], the “Fold increase” value was found to be 7.9 and the “MCP1” value is 1168 pg/mL. Also, the “% Biofilm inhibition” value in experiment [2] is given as 69%. Moreover, in experiment [3], the “Fold change in IL1β relative to no peptide LPS stimulated cells” value is on record as 0.71 and the “IL1β Production” value came out at 937 pg/mL.

For “HH2-K3: single substituted HH2 peptide (VQKRIRVAVIRA-NH2)”, in experiment [1], the “Fold increase” value was 11 and the “MCP1” value was 1763 pg/mL. The “% Biofilm inhibition” value in experiment [2] amounted to 14%. Also, in experiment [3], the “Fold change in IL1β relative to no peptide LPS stimulated cells” value worked out at 1.34 and the “IL1β Production” value worked out at 1761 pg/mL.

For “HH2-K4: single substituted HH2 peptide (VQLKIRVAVIRA-NH2)”, in experiment [1], the “Fold increase” value is given as 10 and the “MCP1” value was determined as 1553 pg/mL. Moreover, the “% Biofilm inhibition” value in experiment [2] is given as 65%. In experiment [3], the “Fold change in IL1β relative to no peptide LPS stimulated cells” value is listed as 0.58 and the “IL1β Production” value worked out at 759 pg/mL.

Consider “HH2-K5: single substituted HH2 peptide (VQLRKRVAVIRA-NH2)”, for which, in experiment [1], the “Fold increase” value is recorded as 12 and the “MCP1” value was found to be 1923 pg/mL. Besides, the “% Biofilm inhibition” value in experiment [2] is given as 27%. Moreover, in experiment [3], the “Fold change in IL1β relative to no peptide LPS stimulated cells” value is reported as 1.19 and the “IL1β Production” value amounted to 1559 pg/mL.

As for “HH2-K6: single substituted HH2 peptide (VQLRIKVAVIRA-NH2)”, in experiment [1], the “Fold increase” value is 142 and the “MCP1” value turned out to be 23989 pg/mL. The “% Biofilm inhibition” value in experiment [2] came out at 64%. In addition, in experiment [3], the “Fold change in IL1β relative to no peptide LPS stimulated cells” value came out at 0.80 and the “IL1β Production” value is 1055 pg/mL.

With “HH2-K7: single substituted HH2 peptide (VQLRIRKAVIRA-NH2)”, in experiment [1], the “Fold increase” value was found to be 1.7 and the “MCP1” value came out at 117 pg/mL. In experiment [2], the “% Biofilm inhibition” value amounted to 7%. Further, in experiment [3], the “Fold change in IL1β relative to no peptide LPS stimulated cells” value is on record as 1.36 and the “IL1β Production” value was determined as 1782 pg/mL.

With “HH2-K8: single substituted HH2 peptide (VQLRIRVKVIRA-NH2)”, in experiment [1], the “Fold increase” value was determined as 9.8 and the “MCP1” value is 1501 pg/mL. Further, in experiment [2], the “% Biofilm inhibition” value is 73%. In addition, in experiment [3], the “Fold change in IL1β relative to no peptide LPS stimulated cells” value was 0.65 and the “IL1β Production” value came out at 851 pg/mL.

Consider “HH2-K9: single substituted HH2 peptide (VQLRIRVAKIRA-NH2)”, for which, in experiment [1], the “Fold increase” value is on record as 2.1 and the “MCP1” value came out at 180 pg/mL. Further, the “% Biofilm inhibition” value in experiment [2] was determined as 52%. Also, in experiment [3], the “Fold change in IL1β relative to no peptide LPS stimulated cells” value is 1.16 and the “IL1β Production” value was found to be 1520 pg/mL.

Regarding “HH2-K10: single substituted HH2 peptide (VQLRIRVAVKRA-NH2)”, in experiment [1], the “Fold increase” value came out at 5.7 and the “MCP1” value was 797 pg/mL. Further, the “% Biofilm inhibition” value in experiment [2] amounted to 68%. Also, in experiment [3], the “Fold change in IL1β relative to no peptide LPS stimulated cells” value was determined as 1.43 and the “IL1β Production” value stood at 1878 pg/mL.

As for “HH2-K11: single substituted HH2 peptide (VQLRIRVAVIKA-NH2)”, in experiment [1], the “Fold increase” value is reported as 18 and the “MCP1” value was 2884 pg/mL. For the same substance, the “% Biofilm inhibition” value in experiment [2] is 43%. In addition, in experiment [3], the “Fold change in IL1β relative to no peptide LPS stimulated cells” value amounted to 1.21 and the “IL1β Production” value was found to be 1593 pg/mL.

As for “HH2-K12: single substituted HH2 peptide (VQLRIRVAVIRK-NH2)”, in experiment [1], the “Fold increase” value turned out to be 15 and the “MCP1” value was found to be 2329 pg/mL. Further, in experiment [2], the “% Biofilm inhibition” value is on record as 67%. Further, in experiment [3], the “Fold change in IL1β relative to no peptide LPS stimulated cells” value was 0.92 and the “IL1β Production” value came to 1203 pg/mL.

With “HH2-L1: single substituted HH2 peptide (LQLRIRVAVIRA-NH2)”, in experiment [1], the “Fold increase” value came out at 4.8 and the “MCP1” value amounted to 654 pg/mL. Further, the “% Biofilm inhibition” value in experiment [2] was 72%. Further, in experiment [3], the “Fold change in IL1β relative to no peptide LPS stimulated cells” value is on record as 0.94 and the “IL1β Production” value is 1234 pg/mL.

With “HH2-L2: single substituted HH2 peptide (VLLRIRVAVIRA-NH2)”, in experiment [1], the “Fold increase” value came out at 13 and the “MCP1” value amounted to 1950 pg/mL. In addition, the “% Biofilm inhibition” value in experiment [2] was 69%. In experiment [3], the “Fold change in IL1β relative to no peptide LPS stimulated cells” value is given as 0.89 and the “IL1β Production” value came to 1172 pg/mL.

For “HH2-L4: single substituted HH2 peptide (VQLLIRVAVIRA-NH2)”, in experiment [1], the “Fold increase” value came out at 18 and the “MCP1” value worked out at 2884 pg/mL. Further, the “% Biofilm inhibition” value in experiment [2] was 54%. In addition, in experiment [3], the “Fold change in IL1β relative to no peptide LPS stimulated cells” value worked out at 0.61 and the “IL1β Production” value is 800 pg/mL.

As to “HH2-L5: single substituted HH2 peptide (VQLRLRVAVIRA-NH2)”, in experiment [1], the “Fold increase” value came out at 1.6 and the “MCP1” value was found to be 97 pg/mL. In addition, in experiment [2], the “% Biofilm inhibition” value turned out to be 58%. In experiment [3], the “Fold change in IL1β relative to no peptide LPS stimulated cells” value came to 0.88 and the “IL1β Production” value was determined as 1156 pg/mL.

For the substance “HH2-L6: single substituted HH2 peptide (VQLRILVAVIRA-NH2)”, in experiment [1], the “Fold increase” value is 1.8 and the “MCP1” value was 138 pg/mL. The “% Biofilm inhibition” value in experiment [2] is reported as 18%. In experiment [3], the “Fold change in IL1β relative to no peptide LPS stimulated cells” value is given as 0.69 and the “IL1β Production” value turned out to be 901 pg/mL.
